Laboratory results from patent publication US10183915B2, “Axially chiral isomers, and preparation methods therefor and pharmaceutical uses thereof” (MEDSHINE DISCOVERY INC., priority 2015, dated 2019).
Where two headings read alike, the source gives them in different places.

Key:
[1] = In vivo pharmacokinetic study in male Sprague-Dawley rats (IV and PO); set-up: species or system Sprague-Dawley rat; details: for MRT inf: read-out: MRT0-inf; for Bioavailability: PO 10 mpk vs IV 2 mpk
Procedure: Test 6: In Vivo Pharmacokinetic Study of the Test Compounds in Rats
To study the pharmacokinetic behavior of the compounds in rats and to evaluate their pharmacokinetic characteristics, their concentrations in plasma were determined by LC/MS/MS.
Appropriate amount of sample was added to a certain amount of pure water, the pH were adjusted to 7-8, to prepare to be 1 mg/mL (filtered and clarified) and 2 mg/mL (with a few particles of suspension) for IV and PO administration. • 2.4 Administration • 18 male SD rats were randomly assigned to 6 treatment groups, 3 rats in each group. Male rats were administrated IV and PO respectively after fasting overnight. The IV dosage was 2 mg/kg, the dose volume was 2 mL/kg, the PO dosage was 10 mg/kg, and the dose volume was 5 mL/kg. 3. Experimental Procedure
For IV group, 250 μL blood samples were collected before administration, and 0.083, 0.25, 0.5, 1, 2, 4, 8, 24 hours after administration, and placed in K2-EDTA anticoagulant tube, centrifuged at 3000 rpm for 15 minutes, plasma was separated, stored at −80° C. For PO Group, blood samples were collected before administration, and 0.25, 0.5, 1, 2, 4, 8, 24 hours after administration, and the other operations were the same as group IV. The content of the test compounds in the plasma of rats after administration of IV and PO were determined by LC/MS/MS method. The linear range of the assay was 6.00-18000 nM, and the lower limit of quantification was 6 nM; the plasma samples were analyzed by pretreatment with precipitated proteins.

[2] = Stability of compounds in human plasma; type: in vitro ADME; details: for Recovery (% remaining): human plasma
Procedure: (§1) Test 5: Evaluation of the Stability of Compounds in Rat Plasma and Human Plasma
(§2) 2. Experimental Procedures and Methods • 2.1 Prior to the experiment, the frozen plasma stored at −40° C. was thawed at room temperature and incubated in a 37° C. water bath for 5-10 min; centrifuged at 4000 rpm for 5 min, to remove impurities and lipids in the plasma. Measured the value of pH, if required, adjusted it to 7.4±0.1. • 2.2 Prepared 400 μM intermediate solution by diluting 4 μL of the working solution (10 mM) with 96 μL DMSO. • 2.3 Preparation of incubation samples: Remove 3 μL of intermediate solution (400 μM) to mix with 597 μL of blank plasma to achieve 2 μM of final concentration. Incubate each time point samples (0 min, 10 min, 30 min, 60 min, 120 min, in duplicate) at 37° C. in water bath. • 2.4 An aliquot of 100 μL samples of the final spiked plasma for each time point were removed to sample collected plates, added 400 μL of stop solution (200 ng/mL Tolbutamide plus 20 ng/mL Buspirone in 50% ACN/MeOH) to precipitate protein. Mixed thoroughly. • 2.5 Centrifuged each plate at 4,000 rpm for 20 min. Transfered an aliquot of supernatant (100 μL) from each well to sample plate and mixed with 200 μL ultra pure water. Shaked the plate at 800 rpm for about 10 min before submitting to LC-MS/MS analysis. 3. Experimental Data Analysis
(§3) The ratio of the peak area to the internal standard peak area was used to assess the decrease of the test compound to be measured. The % remaining of the test compound after incubation in plasma was calculated using following equation: % Remaining=100×(PAR at appointed incubation time/PAR at T0 time)
(§4) wherein PAR is the peak area ratio of analyte versus internal standard (IS)
(§5) The appointed incubation time points are: 0 min, 10 min, 30 min, 60 min, 120 min; T0: Samples prior to incubation.

[3] = Stability of compounds in SD rat plasma; type: in vitro ADME
Procedure: as §1, §2, §3, §4, §5

[4] = Stability of solid compounds in ambient temperature (15° C., nitrogen cabinet, dark; SFC chiral purity); type: physicochemical; details: for Enantiomer Excess of the Compound: solid
Procedure: Test 2: Evaluation of the Stability of Solid Compounds in Ambient Temperature.
20 mg of test compound was placed into 5 mL brown transparent sealed container with stopper and stoned in the nitrogen cabinet (15° C.) in the dark. After the preset storage time, about 2 mg of test compound was accurately weighed, added into ethanol to prepare 1 mg/mL ethanol solution. The purity and chiral purity of the compound was detected by high performance liquid chromatography (HPLC) or LC-MS (LCMS) and supercritical fluid chromatography (SFC).

[5] = Stability of compounds in ethanol solutions (heated; SFC chiral purity); type: physicochemical; details: for Enantiomer Excess of Compound: ethanol solution
Excerpt: Test 3: Evaluation of the Stability of Compounds in Ethanol Solutions.
An appropriate amount of test compound was accurately weighed, added into ethanol to obtain an ethanol solution. The ethanol solution of the compound was stirred in a heated oil bath. At the end of the test, the purity and chiral purity of the compound was detected by high performance liquid chromatography (HPLC) or LC-MS (LCMS) and supercritical fluid chromatography (SFC).

[6] = Stability of compounds in DMSO solutions (heated; SFC chiral purity); type: physicochemical; details: for Enantiomer Excess of Compound: DMSO solution
Procedure: Example 4: Evaluation of the Stability of Compounds in DMSO Solutions
An appropriate amount of test compound was accurately weighed, added into DMSO to obtain a DMSO solution. The DMSO solution of the compound was stirred in a heated oil bath. At the end of the test, a sample amount of the DMSO solution was diluted with ethanol and the purity and chiral purity of the compound was detected by high performance liquid chromatography (HPLC) or LC-MS (LCMS) and supercritical fluid chromatography (SFC).

[7] = male, Sprague-Dawley, rat, plasma, iv, 2 mg/kg, male SD rats, IV 2 mpk
[8] = male, Sprague-Dawley, rat, plasma, po, 10 mg/kg, male SD rats, PO 10 mpk
[9] = male SD rats, IV 2 mpk, 2 mg/kg
[10] = male SD rats, PO 10 mpk, 10 mg/kg

Q: Which clearance ([1]; Sprague-Dawley, rat, plasma, 2 mg/kg, male SD rats, IV 2 mpk) does the source give for `O=C(O)CSc1nnc(Br)n1-c1ccc(C2CC2)c2ccccc12` (racemic) [(±)-Lesinurad, Lesinurad, reference compound] here?
A: 5.72 ± 1.09 mL/min/kg

Q: What about the AUC0-inf ([1]; Sprague-Dawley, rat, plasma, 2 mg/kg, male SD rats, IV 2 mpk, read-out: AUC0-inf) of the same compound?
A: 14.8 ± 3.15 µM·h

Q: And the AUC0-inf ([1]; Sprague-Dawley, rat, plasma, 10 mg/kg, male SD rats, PO 10 mpk, read-out: AUC0-inf)?
A: 62.5 ± 12.1 µM·h

Q: What about the C0 [1, 7] of the same compound?
A: 11.6 ± 1.98 µM

Q: And the half-life [1, 7]?
A: 1.8 ± 0.65 h

Q: And the MRT inf [1, 7]?
A: 2.21 ± 0.63 h

Q: What about the Vd ([1]; male, Sprague-Dawley, rat, plasma, iv, 2 mg/kg, male SD rats, IV 2 mpk, read-out: Vdss) of the same compound?
A: 0.76 ± 0.29 L/kg

Q: And the Cmax [1, 8]?
A: 14.5 ± 8.47 µM

Q: And the half-life [1, 8]?
A: 2.46 ± 0.18 h

Q: What about the Bioavailability ([1]; male, Sprague-Dawley, rat, plasma, po, 10 mg/kg, male SD rats, read-out: Bioavailability) of the same compound?
A: 84.3%

Q: And the MRT inf [1, 8]?
A: 4.63 ± 1.16 h

Q: And the Tmax ([1]; male, Sprague-Dawley, rat, plasma, po, 10 mg/kg, male SD rats, PO 10 mpk, read-out: Tmax)?
A: 2.33 ± 1.53 h

Q: For `O=C(O)CSc1nnc(Br)n1-c1ccc(C2CC2)c2ccccc12` (single isomer, unassigned) [(−)-Lesinurad], which “Stability after co-incubation with human plasma” value ([2]; 2 hours) is on record?
A: very stable

Q: What about the “Recovery (% remaining)” value ([2]; 2 μM, 37° C., 30 min) of the same compound?
A: 100.4%

Q: And the “Recovery (% remaining)” value ([2]; 2 μM, 37° C., 60 min)?
A: 99.6%

Q: What about the recovery at 120 min, 2 μM ([2]; human, plasma, pH 7.4, human plasma, 2 μM, 37° C., 120 min, read-out: Recovery (% remaining)) of the same compound?
A: 101%

Q: And the “Stability after co-incubation with SD-rat plasma” value ([3]; 2 hours)?
A: very stable

Q: What about the recovery at 0 min, 2 μM ([3]; SD, rat, plasma, pH 7.4, SD rat plasma, 2 μM, 37° C., 0 min, read-out: Recovery (% remaining)) of the same compound?
A: 100%

Q: What about the recovery at 10 min, 2 μM ([3]; SD, rat, plasma, pH 7.4, SD rat plasma, 2 μM, 37° C., 10 min, read-out: Recovery (% remaining)) of the same compound?
A: 102%

Q: And the recovery at 30 min, 2 μM ([3]; SD, rat, plasma, pH 7.4, SD rat plasma, 2 μM, 37° C., 30 min, read-out: Recovery (% remaining))?
A: 99.9%

Q: And the recovery at 60 min, 2 μM ([3]; SD, rat, plasma, pH 7.4, SD rat plasma, 2 μM, 37° C., 60 min, read-out: Recovery (% remaining))?
A: 97.9%

Q: And the recovery at 120 min, 2 μM ([3]; SD, rat, plasma, pH 7.4, SD rat plasma, 2 μM, 37° C., 120 min, read-out: Recovery (% remaining))?
A: 100%

Q: What about the “Enantiomer Excess of the Compound” value ([4]; storing time 0 day) of the same compound?
A: 96.5%

Q: What about the “Enantiomer Excess of the Compound” value ([4]; storing time >80 days) of the same compound?
A: Unchanged

Q: What about the “Stability of the solid powder (SFC purity)” value ([4]; storing over 80 days) of the same compound?
A: very stable

Q: What about the “Enantiomer Excess of Compound” value ([5]; 37° C., 4 days) of the same compound?
A: Unchanged

Q: And the “Enantiomer Excess of Compound” value ([5]; 37° C., 7 days)?
A: Unchanged

Q: What about the “Enantiomer Excess of Compound” value ([5]; heating time 0 day) of the same compound?
A: 96.5%

Q: And the “Stability in ethanol solutions (SFC purity)” value ([5]; heating to 37° C. and up to 70° C.)?
A: very stable

Q: What about the “Enantiomer Excess of Compound” value ([6]; 80° C., 0 h) of the same compound?
A: 96.5%

Q: What about the “Enantiomer Excess of Compound” value ([6]; 80° C., 2 × 24 h) of the same compound?
A: Unchanged

Q: And the “Enantiomer Excess of Compound” value ([6]; 80° C., 4 × 24 h)?
A: Unchanged

Q: What about the “Enantiomer Excess of Compound” value ([6]; 80° C., 2 h) of the same compound?
A: Unchanged

Q: And the “Enantiomer Excess of Compound” value ([6]; 80° C., 4 h)?
A: Unchanged

Q: And the “Enantiomer Excess of Compound” value ([6]; 80° C., 8 h)?
A: Unchanged

Q: What about the “Enantiomer Excess of Compound” value ([6]; 80° C., 24 h) of the same compound?
A: Unchanged

Q: What about the “Enantiomer Excess of Compound” value ([6]; 120° C., 0 h) of the same compound?
A: 96.5%

Q: What about the “Enantiomer Excess of Compound” value ([6]; 120° C., 2 × 24 h) of the same compound?
A: Unchanged

Q: What about the “Enantiomer Excess of Compound” value ([6]; 120° C., 4 × 24 h) of the same compound?
A: Unchanged

Q: What about the “Enantiomer Excess of Compound” value ([6]; 120° C., 2 h) of the same compound?
A: Unchanged

Q: And the “Enantiomer Excess of Compound” value ([6]; 120° C., 4 h)?
A: Unchanged

Q: And the “Enantiomer Excess of Compound” value ([6]; 120° C., 8 h)?
A: Unchanged

Q: And the “Enantiomer Excess of Compound” value ([6]; 120° C., 24 h)?
A: Unchanged

Q: What about the “Enantiomer Excess of Compound” value ([6]; 160° C., 0 h) of the same compound?
A: 96.5%

Q: What about the “Enantiomer Excess of Compound” value ([6]; 160° C., 8 h) of the same compound?
A: Unchanged

Q: What about the “Stability in DMSO solutions (SFC purity)” value ([6]; heating to 80° C., 120° C. and up to 160° C.) of the same compound?
A: very stable

Q: And the “Transformation of the atropisomer in vivo” value ([1]; SD rats, IV and PO)?
A: no transformation was observed

Q: What about the AUC0-inf [1, 9] of the same compound?
A: 14.419 ± 1.54695 µM·h

Q: And the C0 [1, 9]?
A: 9.39 ± 3.21 µM

Q: What about the Cl [1, 9] of the same compound?
A: 5.76 ± 0.59 mL/min/kg

Q: What about the MRT0-inf [1, 9] of the same compound?
A: 2.16 ± 0.07 h

Q: What about the T1/2 [1, 9] of the same compound?
A: 1.46 ± 0.03 h

Q: And the Vdss [1, 9]?
A: 0.75 ± 0.10 L/kg

Q: And the Bioavailability ([1]; male SD rats)?
A: 65.11%

Q: What about the AUC0-inf [1, 10] of the same compound?
A: 46.94391 ± 11.4987 µM·h

Q: What about the Cmax [1, 10] of the same compound?
A: 11 ± 3.99 µM

Q: What about the MRT0-inf [1, 10] of the same compound?
A: 3.92 ± 0.64 h

Q: And the T1/2 [1, 10]?
A: 2.17 ± 0.10 h

Q: What about the Tmax [1, 10] of the same compound?
A: 2.33 ± 1.53 h
